Assay results as given in ChEMBL document CHEMBL5532685 (J Nat Prod, 2024).

Experiments:
Prothrombin = Prothrombin (Homo sapiens, UniProt P00734); assay: Inhibition of human thrombin
[1] = target: Programmed cell death protein 1/Programmed cell death 1 ligand 1 (Homo sapiens, UniProt Q15116+Q9NZQ7); assay: Inhibition of PD-1/PD-L1 (unknown origin) protein protein interaction; assay type: protein-complex assay
Procathepsin L = Procathepsin L (Homo sapiens, UniProt P07711); assay: Inhibition of human cathepsin L
Chain of Procathepsin L (P07711 whole entry): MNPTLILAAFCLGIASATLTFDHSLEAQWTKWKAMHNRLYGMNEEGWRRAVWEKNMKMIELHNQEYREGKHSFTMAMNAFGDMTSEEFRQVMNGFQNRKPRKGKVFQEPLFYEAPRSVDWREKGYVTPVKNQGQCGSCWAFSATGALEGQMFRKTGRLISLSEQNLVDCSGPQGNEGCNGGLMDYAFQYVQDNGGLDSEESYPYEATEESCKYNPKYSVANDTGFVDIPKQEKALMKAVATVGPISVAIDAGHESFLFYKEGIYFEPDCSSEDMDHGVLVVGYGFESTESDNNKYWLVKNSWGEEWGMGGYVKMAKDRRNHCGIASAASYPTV

[2] = target: Spike glycoprotein/Angiotensin-converting enzyme 2 (Severe acute respiratory syndrome coronavirus 2, UniProt P0DTC2+Q9BYF1); assay: Inhibition of His-tagged SARS-CoV2 USA-WA1/2020 spike-RBD/biotinylated Fc-tagged ACE2 (unknown origin) protein protein interaction incubated for 1 hr by Alphascreen assay
Chain of Spike glycoprotein/Angiotensin-converting enzyme 2 (Q9BYF1 18-805 limits assumed, other chains not shown): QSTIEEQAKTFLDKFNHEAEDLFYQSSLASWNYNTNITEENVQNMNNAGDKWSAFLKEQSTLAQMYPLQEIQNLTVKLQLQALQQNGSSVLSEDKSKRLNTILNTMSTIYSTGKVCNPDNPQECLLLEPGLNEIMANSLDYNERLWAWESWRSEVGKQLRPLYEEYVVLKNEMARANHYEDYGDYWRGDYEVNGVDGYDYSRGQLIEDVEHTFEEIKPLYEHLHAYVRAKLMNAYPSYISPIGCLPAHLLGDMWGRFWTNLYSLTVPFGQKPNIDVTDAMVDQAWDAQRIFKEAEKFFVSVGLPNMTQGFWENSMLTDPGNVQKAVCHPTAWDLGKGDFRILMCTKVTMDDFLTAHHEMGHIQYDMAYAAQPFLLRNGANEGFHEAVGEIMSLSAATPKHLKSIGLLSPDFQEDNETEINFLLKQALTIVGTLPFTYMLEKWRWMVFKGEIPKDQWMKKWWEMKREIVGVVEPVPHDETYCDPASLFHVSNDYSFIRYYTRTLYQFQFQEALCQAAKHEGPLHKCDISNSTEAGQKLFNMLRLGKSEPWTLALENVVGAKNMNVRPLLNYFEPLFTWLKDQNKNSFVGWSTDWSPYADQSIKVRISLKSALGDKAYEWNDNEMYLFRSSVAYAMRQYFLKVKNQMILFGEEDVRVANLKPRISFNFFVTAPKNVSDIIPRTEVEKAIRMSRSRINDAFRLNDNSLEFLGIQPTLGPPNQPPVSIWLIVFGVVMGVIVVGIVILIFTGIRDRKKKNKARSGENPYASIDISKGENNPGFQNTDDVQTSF

[3] = target: Replicase polyprotein 1ab (Severe acute respiratory syndrome coronavirus 2, UniProt P0DTD1); assay: Inhibition of SARS-CoV2 MPro using Dabcyl-KTSAVLQSGFRKME-Edans as substrate by fluorescence based analysis

Chain of Programmed cell death protein 1/Programmed cell death 1 ligand 1 (Q15116 whole entry): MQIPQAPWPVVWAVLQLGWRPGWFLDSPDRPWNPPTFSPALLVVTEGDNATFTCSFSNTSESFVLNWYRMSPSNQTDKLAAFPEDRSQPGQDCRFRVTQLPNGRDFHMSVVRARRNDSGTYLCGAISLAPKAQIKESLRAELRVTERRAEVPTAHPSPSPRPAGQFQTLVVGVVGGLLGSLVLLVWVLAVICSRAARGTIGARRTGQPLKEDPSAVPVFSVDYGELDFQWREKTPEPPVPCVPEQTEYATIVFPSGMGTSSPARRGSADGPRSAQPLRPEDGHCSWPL
Chain of Programmed cell death protein 1/Programmed cell death 1 ligand 1 (Q9NZQ7 whole entry): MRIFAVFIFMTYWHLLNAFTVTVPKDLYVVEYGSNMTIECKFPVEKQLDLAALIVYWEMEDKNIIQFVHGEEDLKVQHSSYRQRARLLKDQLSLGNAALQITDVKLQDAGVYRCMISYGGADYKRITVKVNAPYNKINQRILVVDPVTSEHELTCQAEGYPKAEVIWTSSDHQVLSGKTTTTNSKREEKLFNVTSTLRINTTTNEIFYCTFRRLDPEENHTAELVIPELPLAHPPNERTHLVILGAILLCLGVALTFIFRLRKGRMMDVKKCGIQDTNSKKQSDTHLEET

SMILES	IC50 (Prothrombin) [µM]	IC50 [1] [µM]	IC50 (Procathepsin L) [µM]	IC50 [2] [µM]	IC50 [3] [µM]
CCCCCCCCCC(C)CCC(C)C(=O)O (configuration not stated)	> 390	> 390	218		
CCCCCCCCCC(C)CCC(C)C(=O)OC (configuration not stated)				> 370	> 370
CCCCCCCCCC(C)CCC(C)C(=O)OCc1ccccc1 (configuration not stated)				> 289	> 289
